# In US11666596B2, “Nucleotide, polypeptide and applications thereof” (THE FIRST AFFILIATED HOSPITAL, SUN YAT-SEN UNIVERSITY, priority 2017, dated 2023):
# Ends that are not written are not given here.
# System: U251 cells
# Test: Verification of ability of micropeptide to enter cells (fluorescence microscopy)
# Assay type: cell-based
# Settings: FITC-attached micropeptide, 10 μM, 4 hours; all cells in sight were fluorescent; FIG. 4
# Method: U251 cells were inoculated onto a glass slide at the density of 50%, and different concentrations of PTEN-31aa micropeptide attached with FITC fluorescent groups (the micropeptide was dissolved in DMSO with a concentration being 20 μg/μL, 5 mM) were added to treat cells for 4 hours, then fixed with Faure Marin, and observed and photographed under a fluorescence microscope.
sequence,measurement,value
MWRDSLCAAAGYALGAGTRLRSVLSSRKLQP [PTEN-31aa],ability of micropeptide to enter U251 cells,could enter the U251 cells smoothly
